These results are taken from PMC2628638, “Catalytic inhibition of topoisomerase II by a novel rationally designed ATP-competitive purine analogue” (BMC Chemical Biology, 2009).

Test [1] concerns the target T1, topoisomerase II alpha (Homo sapiens, UniProt P11388). Kind of test: DNA-dependent ATPase assay (malachite green). Format: biochemical. On the set-up: screened in an ATPase assay using purified full length tagged human topoisomerase II alpha; made in house; host or cells: Sf21 insect cells, baculovirus (pFastBac1). On the procedure:
DNA-dependent ATP hydrolysis of human topoisomerase II α was monitored by measuring the production of inorganic phosphate using acidic molybdate and malachite green. Specific ATPase activity of every batch was tested in a time-course to determine optimal incubation times and enzyme concentrations within the linear range of the assay. Reactions thus contained 10 – 40 nM topoisomerase II (dimer concentration) in reaction buffer (10 mM Tris HCl pH 7.5, 175 mM KCl, 0.1 mM EDTA, 5 mM MgCl2, 2 mM DTT, 2.5% glycerol and 1.7 nM supercoiled pUC18). The specific activity of the human topoisomerase II α enzyme measured in the ATPase assay was 0.24 μmol PO4·min^-1·mg^-1. […] Compounds at the indicated concentrations were added as serial dilutions prepared in DMSO and preincubated for 10 minutes at 37°C on an orbital shaker. Reactions were started by the addition of 400 μM ATP (Sigma, catalog number A2383) and allowed to proceed for 30 minutes. Reactions were terminated by the addition of 200 μl malachite green reagent and the OD was read immediately at 630 nm on a SpectraMax Plus microtiter plate reader using SoftMax Pro software (Molecular Devices). For kinetic analysis, reactions were carried out in duplicate as described above either in the presence of vehicle (DMSO) or QAP 1. Following a preincubation for 5 minutes, ATP was added at the indicated concentrations to start the reactions, which were allowed to proceed for 17 minutes before stopping and reading as above. From these values the OD values obtained at each respective ATP concentration without enzyme were subtracted for background correction. […] A compromise was found by carrying out the competition experiments with a single concentration of the inhibitor that gave a good inhibition of enzyme activity while keeping a measurable signal. The equations used to fit these experiments are: […]
Each competition experiment was fitted (Grafit version 5.04 – Erithacus Software) with these 3 equations and the models that gave unrealistic inhibition constants (above 10 mM) and/or large standard errors (similar to the value of the fitted parameter) were rejected. Then, the F-test was carried out to identify the best fitting model. An alternative method was used to determine the mode of action of the inhibitor. Dose-response experiments were carried out at different ATP concentrations and the corresponding IC50s determined. According to the Cheng-Prusoff equation for linear competitive inhibition: […]
The IC50 of a competitive inhibitive inhibitor should increase in a linear fashion with the concentration of ATP. The measured IC50s were then plotted in function of the ATP concentrations and linear regression analyses were carried out. […] Mean Km and Vmax values were calculated from two independent experiments.

A further test has as its target T2, topoisomerase II beta (Homo sapiens, UniProt Q02880).
T2 construct: endogenous in cells; host or cells: HL-60 nuclear extract
Kind of test: Affinity precipitation with biotinylated purine analogue 2 from HL-60 nuclear extracts. Format: binding. To be noted: for competition of the interaction of biotinylated purine analogue 2 with topoisomerase II beta: 1 μM biotinylated analogue 2, competitor in excess (10 μM), QAP 1 also at equimolar concentration. On the procedure:
(§1) Topoisomerase II α and β were affinity precipitated with biotinylated inhibitor as follows. Exponentially growing HL-60 cells were collected on ice and incubated with hypotonic buffer (10 mM HEPES pH 7.5, 1.5 mM MgCl2, 10 mM KCl, 0.5 mM DTT, 0.5 mM PMSF, 1× protease inhibitor cocktail (Complete Mini, Roche Diagnostics GmbH)) for 15 minutes, then 0.6% v/v NP-40 was added and cells were disrupted using a Dounce homogenizer. Lysates were transferred to 1.5 ml Protein LoBind Eppendorf tubes and nuclei were collected after centrifugation at 8000 rpm for 10 minutes and washed twice with hypotonic buffer. To extract and release chromatin associated topoisomerase II nuclei were incubated for 30 minutes in DNAse buffer (20 mM Tris HCl pH 7.5, 5 mM MgCl2, 1 mM CaCl2, 25 mM NaCl, 0.5 mM EDTA, 1% NP-40, 1 mM DTT, 1 × protease inhibitor cocktail, 0.1 mM PMSF) containing 40 U DNAse I (Roche Diagnostics GmbH) followed by addition of twice concentrated nuclear extraction buffer (20 mM HEPES pH 7.5, 3 mM MgCl2, 20 mM KCl, 50 mM β-glycerophosphate, 840 mM NaCl, 1 mM EDTA, 50 mM PNPP, 1 mM DTT, 1 mM PMSF) and rotation for 1 h in the coldroom. The soluble fraction was obtained following centrifugation at 13000 rpm for 15 minutes. 25 μg nuclear extract were used for the affinity precipitation. The salt concentration was adjusted to 150 mM with nuclear extraction buffer (without NaCl) and the sample volume was toped off to 200 μl with precipitation buffer (50 mM HEPES pH 7.4, 150 mM NaCl, 25 mM β-glycerophosphate, 25 mM NaF, 5 mM EGTA, 1 mM EDTA, 15 mM PPI, 1 mM PMSF). Compounds were preincubated for 30 minutes prior addition of biotinylated purine analogue 2 for 2 h. Streptavidin agarose beads (Novagen, 69203) were washed twice with PBS, blocked for 30 minutes with PBS containing 1% BSA, washed twice with PBS and finally with precipitation buffer. 40 μl equilibrated streptavidin agarose beads were added to the sample and incubation was continued for 1 h. Beads were pelleted by centrifugation at 7000 rpm for 5 minutes and washed thrice with precipitation buffer. During the last wash the beads were transferred to a new tube and the bound fraction was released by boiling for 5 minutes in Laemmli sample buffer. Topoisomerase II α and β were detected by Western blot as described below.

For test [2], the target named is T1, topoisomerase II alpha. Described as above. To be noted: for competition of the interaction of biotinylated purine analogue 2 with topoisomerase II alpha: 1 μM biotinylated analogue 2, competitor in excess (10 μM), QAP 1 also at equimolar concentration. On the set-up: endogenous in cells; host or cells: HL-60 nuclear extract. Format: binding. Here is the method: as §1

Test [3] deals with HCC1937 BRCA1 mutant and HCC1937 BRCA1 reconstituted cells. Kind of test: Clonogenic growth assay (WST-1, colony counting). It is filed as cell-based. The settings on record: continuous treatment for 9 days, WST-1 and colony numbers. Here is the method: HCC1937 BRCA1 mutant and HCC1937 BRCA1 reconstituted breast ductal carcinoma cells were cultured in RPMI-1640 medium supplemented with 10% fetal calf serum, 2 mM L-glutamine, 1 mM sodium pyruvate, 4.5 g/l glucose and 1% (v/v) penicillin/streptomycin. Status of BRCA1 was corroborated by immunoprecipitation using 50 μg nuclear extracts and 1 μg mouse monoclonal antibody MS110 (ab16780, Abcam Inc., Cambridge, MA), which is directed towards the amino-terminus of the protein. Blots were probed with BRCA1 carboxy-terminal specific mouse monoclonal antibody D9 (sc-6954, Santa Cruz Biotechnologies, Santa Cruz, CA) and, following stripping, re-probed with antibody MS110. For assays, 5000 cells in 3 ml medium were seeded per well of 6 well plates in duplicates. The day after, vehicle (DMSO) or compounds were added. After one week medium was exchanged and vehicle or compounds were re-added for an additional two days. To assess proliferation the medium in each well was replaced with 1 ml medium containing 100 μl WST-1 reagent and incubation for 20 minutes at 37°C. Of each sample 110 μl supernatant were transferred into a 96 well plate and the OD was read at 450 nm (filter at 630 nm) on a SpectraMax Plus microtiter plate reader using SoftMax Pro software (Molecular Devices). For background correction, the blank value consisted of 100 μl medium containing 10 μl WST-1. Thereafter, colonies were stained by removing medium, washing cells once with PBS and incubation with 1 ml crystal violet solution for 30 minutes at room temperature. Cells were washed twice with PBS and colonies were counted using an Artec Counter (Model 880, Artec, Dyntatech Laboratories Inc.) with diameter cut-off set to 0.2 mm. Data were expressed as growth or colony numbers relative to vehicle control treatments (100%).
(Tetrazolium dyes change colour on reduction, which living cells bring about.)

[4] abbreviates: 1 μM biotinylated compound, HL-60 nuclear extracts.

T1 sequence (P11388 whole entry): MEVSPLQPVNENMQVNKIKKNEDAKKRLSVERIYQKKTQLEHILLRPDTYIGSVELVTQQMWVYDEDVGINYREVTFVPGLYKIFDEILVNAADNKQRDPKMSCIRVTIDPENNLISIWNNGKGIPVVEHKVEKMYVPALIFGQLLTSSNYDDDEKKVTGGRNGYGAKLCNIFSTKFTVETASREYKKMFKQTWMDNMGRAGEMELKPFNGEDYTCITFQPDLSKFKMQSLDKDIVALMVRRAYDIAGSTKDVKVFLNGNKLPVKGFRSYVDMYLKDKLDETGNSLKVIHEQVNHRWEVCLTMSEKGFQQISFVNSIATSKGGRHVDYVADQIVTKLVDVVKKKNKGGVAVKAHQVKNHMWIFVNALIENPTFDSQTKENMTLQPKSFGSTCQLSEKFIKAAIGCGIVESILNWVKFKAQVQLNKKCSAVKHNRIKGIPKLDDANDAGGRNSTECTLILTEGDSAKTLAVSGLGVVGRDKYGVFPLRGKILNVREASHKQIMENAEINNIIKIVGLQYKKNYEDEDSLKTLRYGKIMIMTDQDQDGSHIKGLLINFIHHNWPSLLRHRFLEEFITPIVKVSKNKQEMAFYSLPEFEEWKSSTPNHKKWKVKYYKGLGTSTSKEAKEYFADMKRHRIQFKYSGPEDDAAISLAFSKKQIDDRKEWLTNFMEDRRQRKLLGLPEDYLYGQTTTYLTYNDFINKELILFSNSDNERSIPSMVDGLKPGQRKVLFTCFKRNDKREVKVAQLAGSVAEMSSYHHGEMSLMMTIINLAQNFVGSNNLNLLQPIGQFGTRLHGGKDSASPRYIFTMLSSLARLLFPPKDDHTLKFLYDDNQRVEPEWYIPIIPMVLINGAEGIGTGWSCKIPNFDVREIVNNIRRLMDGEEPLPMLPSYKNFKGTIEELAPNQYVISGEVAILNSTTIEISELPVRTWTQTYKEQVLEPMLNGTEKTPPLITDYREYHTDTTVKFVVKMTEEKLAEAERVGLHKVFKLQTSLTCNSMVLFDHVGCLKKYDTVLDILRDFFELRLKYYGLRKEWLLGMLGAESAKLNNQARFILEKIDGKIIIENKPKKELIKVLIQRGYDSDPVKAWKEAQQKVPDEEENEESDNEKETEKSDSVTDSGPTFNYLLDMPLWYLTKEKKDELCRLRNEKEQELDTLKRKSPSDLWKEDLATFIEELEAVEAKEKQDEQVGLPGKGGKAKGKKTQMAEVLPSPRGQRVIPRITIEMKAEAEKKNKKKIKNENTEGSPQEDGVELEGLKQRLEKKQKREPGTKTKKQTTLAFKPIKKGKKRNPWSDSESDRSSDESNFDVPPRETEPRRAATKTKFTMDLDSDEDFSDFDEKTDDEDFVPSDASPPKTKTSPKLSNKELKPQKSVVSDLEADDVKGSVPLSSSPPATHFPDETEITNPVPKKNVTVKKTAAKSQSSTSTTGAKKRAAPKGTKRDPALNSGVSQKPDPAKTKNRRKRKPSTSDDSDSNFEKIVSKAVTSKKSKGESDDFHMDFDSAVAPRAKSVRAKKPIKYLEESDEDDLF
T2 sequence (Q02880 whole entry): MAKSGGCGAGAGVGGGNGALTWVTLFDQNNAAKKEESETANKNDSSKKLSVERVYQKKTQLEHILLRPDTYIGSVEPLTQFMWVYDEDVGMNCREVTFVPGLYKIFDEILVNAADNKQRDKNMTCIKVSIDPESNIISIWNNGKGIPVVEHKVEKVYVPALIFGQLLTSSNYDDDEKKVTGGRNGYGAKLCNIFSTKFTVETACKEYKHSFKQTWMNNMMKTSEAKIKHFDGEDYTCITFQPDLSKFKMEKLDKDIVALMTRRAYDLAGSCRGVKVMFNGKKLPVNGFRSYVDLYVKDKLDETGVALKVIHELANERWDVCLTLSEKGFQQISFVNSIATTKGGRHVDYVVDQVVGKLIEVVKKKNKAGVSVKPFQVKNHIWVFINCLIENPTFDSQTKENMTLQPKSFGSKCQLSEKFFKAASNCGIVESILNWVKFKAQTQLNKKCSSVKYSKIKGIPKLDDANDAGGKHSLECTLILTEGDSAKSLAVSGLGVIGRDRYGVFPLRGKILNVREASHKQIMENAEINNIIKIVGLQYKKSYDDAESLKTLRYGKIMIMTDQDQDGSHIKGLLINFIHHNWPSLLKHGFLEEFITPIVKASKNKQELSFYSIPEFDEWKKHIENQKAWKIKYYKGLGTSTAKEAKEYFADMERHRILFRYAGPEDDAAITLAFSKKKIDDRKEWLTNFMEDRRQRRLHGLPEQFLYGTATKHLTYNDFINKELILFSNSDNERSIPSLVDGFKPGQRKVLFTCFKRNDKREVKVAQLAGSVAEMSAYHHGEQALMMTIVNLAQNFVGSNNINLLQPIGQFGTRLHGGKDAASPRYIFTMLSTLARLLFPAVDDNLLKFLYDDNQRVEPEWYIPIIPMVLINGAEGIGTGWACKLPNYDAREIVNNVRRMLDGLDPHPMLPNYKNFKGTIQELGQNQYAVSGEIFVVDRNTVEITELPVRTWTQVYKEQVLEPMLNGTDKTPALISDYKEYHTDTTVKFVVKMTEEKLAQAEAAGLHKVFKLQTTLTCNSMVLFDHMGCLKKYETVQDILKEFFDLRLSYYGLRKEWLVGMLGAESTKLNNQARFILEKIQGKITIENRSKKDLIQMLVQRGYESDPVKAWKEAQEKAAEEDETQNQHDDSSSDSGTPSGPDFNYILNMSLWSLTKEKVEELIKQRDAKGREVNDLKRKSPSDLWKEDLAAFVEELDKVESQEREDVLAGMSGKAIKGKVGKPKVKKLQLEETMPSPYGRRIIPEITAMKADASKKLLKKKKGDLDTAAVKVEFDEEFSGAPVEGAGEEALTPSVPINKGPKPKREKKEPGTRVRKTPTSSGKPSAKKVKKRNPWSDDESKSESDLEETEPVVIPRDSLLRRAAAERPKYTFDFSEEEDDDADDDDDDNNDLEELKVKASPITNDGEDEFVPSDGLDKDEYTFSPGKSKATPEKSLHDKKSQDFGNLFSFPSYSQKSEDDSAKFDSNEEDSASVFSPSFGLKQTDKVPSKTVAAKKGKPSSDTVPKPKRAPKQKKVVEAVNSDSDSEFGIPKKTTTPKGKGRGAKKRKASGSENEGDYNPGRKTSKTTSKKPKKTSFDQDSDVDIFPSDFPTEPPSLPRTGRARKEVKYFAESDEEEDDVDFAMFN

As for `CCc1nc2c(N3CCSCC3)nc(Nc3ccc4ncsc4c3)nc2[nH]1` [purine analogue 4], the “activity in the ATPase assays” value on topoisomerase II alpha [1] (result in words) was “inactive”. On topoisomerase II beta, the “competition of the interaction of biotinylated purine analogue 2 with topoisomerase II beta” value is on record as “not”. For the same molecule, on topoisomerase II alpha [2], the “competition of the interaction of biotinylated purine analogue 2 with topoisomerase II alpha” value is recorded as “not”.

Take `CCc1nc2c(NC(C)(C)C)nc(Nc3ccc4ncsc4c3)nc2[nH]1` [purine analogue 3]: on topoisomerase II alpha [1] (full length tagged human topoisomerase II alpha, 400 μM ATP), 432 ± 30 nM corresponded to half-maximal inhibition (IC50). Besides, the “competition of the interaction of biotinylated purine analogue 2 with topoisomerase II beta” value at topoisomerase II beta was “lost”. At topoisomerase II alpha [2], the “competition of the interaction of biotinylated purine analogue 2 with topoisomerase II alpha” value is “lost”.

With `CCc1nc2c(NC(C)(C)C)nc(Nc3ccc4nc(OCCN5CCN(C(=O)CCOCCOCCOCCNC(=O)CCCC[C@@H]6SC[C@@H]7NC(=O)N[C@@H]76)CC5)sc4c3)nc2[nH]1` [purine analogue 2], the “pull down of topoisomerase II beta by biotinylated compound” value at topoisomerase II beta (setting [4]) is reported as “pull down”. For the same molecule, on topoisomerase II alpha [2] (setting [4]), the “pull down of topoisomerase II alpha by biotinylated compound” value was “pull down”.

For `C=CCNC1=C2C[C@@H](C)C[C@H](OC)[C@H](O)[C@@H](C)/C=C(\C)[C@H](OC(N)=O)[C@@H](OC)/C=C\C=C(/C)C(=O)NC(=CC1=O)C2=O` [17-AAG, reference compound], the “sensitivity of BRCA1 mutant versus BRCA1 reconstituted HCC1937 cells” value in test [3] was “to a similar extent”.

A word on the IC50: it is the concentration at which inhibition is half-maximal. Lower therefore signals higher potency.
